Reference: PubChem BioAssay (NCI)
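The concentration for 50% growth inhibition is given as GI50. TGI: concentration producing complete growth inhibition.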

Assays:
Test in all cases: inhibition of tumour cell growth, NCI panel, 384-well format
786-0 renal = test system: 786-0 renal
A498 renal = test system: A498 renal
A549 NSCLC = test system: A549 NSCLC
ACHN renal = test system: ACHN renal
BT-549 breast = test system: BT-549 breast
CAKI-1 renal = test system: CAKI-1 renal
CCRF-CEM leukemia = test system: CCRF-CEM leukemia
COLO 205 colon = test system: COLO 205 colon
DU-145 prostate = test system: DU-145 prostate
EKVX NSCLC = test system: EKVX NSCLC
HCC-2998 colon = test system: HCC-2998 colon
HCT-15 colon = test system: HCT-15 colon
HL-60(TB) leukemia = test system: HL-60(TB) leukemia
HOP-62 NSCLC = test system: HOP-62 NSCLC
HOP-92 NSCLC = test system: HOP-92 NSCLC
HS 578T breast = test system: HS 578T breast
HT29 colon = test system: HT29 colon
IGROV1 ovarian = test system: IGROV1 ovarian
K-562 leukemia = test system: K-562 leukemia
KM12 colon = test system: KM12 colon
LOX IMVI melanoma = test system: LOX IMVI melanoma
M14 melanoma = test system: M14 melanoma
MALME-3M melanoma = test system: MALME-3M melanoma
MCF7 breast = test system: MCF7 breast
MDA-MB-231 breast = test system: MDA-MB-231 breast
MDA-MB-435 melanoma = test system: MDA-MB-435 melanoma
MDA-MB-468 breast = test system: MDA-MB-468 breast
MOLT-4 leukemia = test system: MOLT-4 leukemia
NCI-H226 lung = test system: NCI-H226 lung
NCI-H23 lung = test system: NCI-H23 lung
NCI-H322M lung = test system: NCI-H322M lung
NCI-H460 NSCLC = test system: NCI-H460 NSCLC
NCI-H522 lung = test system: NCI-H522 lung
NCI/ADR-RES ovarian = test system: NCI/ADR-RES ovarian
OVCAR-3 ovarian = test system: OVCAR-3 ovarian
OVCAR-4 ovarian = test system: OVCAR-4 ovarian
OVCAR-5 ovarian = test system: OVCAR-5 ovarian
OVCAR-8 ovarian = test system: OVCAR-8 ovarian
PC-3 prostate = test system: PC-3 prostate
RPMI-8226 leukemia = test system: RPMI-8226 leukemia
RXF 393 renal = test system: RXF 393 renal
SF-268 CNS = test system: SF-268 CNS
SF-295 CNS = test system: SF-295 CNS
SF-539 CNS = test system: SF-539 CNS
SK-MEL-28 melanoma = test system: SK-MEL-28 melanoma
SK-MEL-5 melanoma = test system: SK-MEL-5 melanoma
SK-OV-3 ovarian = test system: SK-OV-3 ovarian
SN12C renal = test system: SN12C renal
SNB-19 CNS = test system: SNB-19 CNS
SNB-75 CNS = test system: SNB-75 CNS
SR leukemia = test system: SR leukemia
SW-620 colon = test system: SW-620 colon
T-47D breast = test system: T-47D breast
TK-10 renal = test system: TK-10 renal
U251 glioblastoma = test system: U251 glioblastoma
UACC-257 melanoma = test system: UACC-257 melanoma
UACC-62 melanoma = test system: UACC-62 melanoma
UO-31 renal = test system: UO-31 renal

Cc1sc2c(c1C)C(c1ccc(Cl)cc1)=N[C@@H](CC(=O)OC(C)(C)C)c1nnc(C)n1-2
GI50 ([…]-0 renal): 118 nM | TGI (786-0 renal): 13800 nM | GI50 (A498 renal): 197 nM | TGI (A498 renal): 9700 nM | GI50 (A549 NSCLC): 177 nM | TGI (A549 NSCLC): 13600 nM | GI50 (ACHN renal): 560 nM | TGI (ACHN renal): 16900 nM | GI50 (BT-549 breast): 51 nM | TGI (BT-549 breast): 869 nM | GI50 (CAKI-1 renal): 53.9 nM | TGI (CAKI-1 renal): 13000 nM | GI50 (CCRF-CEM leukemia): 230 nM | TGI (CCRF-CEM leukemia): 1680 nM | GI50 (COLO 205 colon): 100 nM | TGI (COLO 205 colon): 11500 nM | GI50 (DU-145 prostate): 2220 nM | TGI (DU-145 prostate): 20100 nM | GI50 (EKVX NSCLC): 4610 nM | TGI (EKVX NSCLC): 20500 nM | GI50 (HCC-2998 colon): 94.6 nM | TGI (HCC-2998 colon): 394 nM | GI50 (HCT-15 colon): 48.4 nM | TGI (HCT-15 colon): 371 nM | GI50 (HL-60(TB) leukemia): 23.3 nM | TGI (HL-60(TB) leukemia): 73.2 nM | GI50 (HOP-62 NSCLC): 71.9 nM | TGI (HOP-62 NSCLC): 10900 nM | GI50 (HOP-92 NSCLC): 74.4 nM | TGI (HOP-92 NSCLC): 13600 nM | GI50 (HS 578T breast): 30.7 nM | TGI (HS 578T breast): 266 nM | GI50 (HT29 colon): 82 nM | TGI (HT29 colon): 12600 nM | GI50 (IGROV1 ovarian): 160 nM | TGI (IGROV1 ovarian): 1190 nM | GI50 (K-562 leukemia): 139 nM | TGI (K-562 leukemia): 13500 nM | GI50 (KM12 colon): 322 nM | TGI (KM12 colon): 13200 nM | GI50 (LOX IMVI melanoma): 57.3 nM | TGI (LOX IMVI melanoma): 223 nM | GI50 (M14 melanoma): 447 nM | TGI (M14 melanoma): 17500 nM | GI50 (MALME-3M melanoma): 96.7 nM | TGI (MALME-3M melanoma): 2330 nM | GI50 (MCF7 breast): 38.3 nM | TGI (MCF7 breast): 10300 nM | GI50 (MDA-MB-231 breast): 57.7 nM | TGI (MDA-MB-231 breast): 13700 nM | GI50 (MDA-MB-435 melanoma): 599 nM | TGI (MDA-MB-435 melanoma): 10700 nM | GI50 (MDA-MB-468 breast): 37.3 nM | TGI (MDA-MB-468 breast): 109 nM | GI50 (MOLT-4 leukemia): 201 nM | TGI (MOLT-4 leukemia): 1170 nM | GI50 (NCI-H226 lung): 106 nM | TGI (NCI-H226 lung): 12300 nM | GI50 (NCI-H23 lung): 148 nM | TGI (NCI-H23 lung): 3500 nM | GI50 (NCI-H322M lung): 241 nM | TGI (NCI-H322M lung): 14600 nM | GI50 (NCI-H460 NSCLC): 1040 nM | TGI (NCI-H460 NSCLC): 15000 nM | GI50 (NCI-H522 lung): 56 nM | TGI (NCI-H522 lung): 434 nM | GI50 (NCI/ADR-RES ovarian): 80.5 nM | TGI (NCI/ADR-RES ovarian): 839 nM | GI50 (OVCAR-3 ovarian): 86 nM | TGI (OVCAR-3 ovarian): 1070 nM | GI50 (OVCAR-4 ovarian): 42.1 nM | TGI (OVCAR-4 ovarian): 254 nM | GI50 (OVCAR-5 ovarian): 183 nM | TGI (OVCAR-5 ovarian): 14500 nM | GI50 (OVCAR-8 ovarian): 91.7 nM | TGI (OVCAR-8 ovarian): 1750 nM | GI50 (PC-3 prostate): 744 nM | TGI (PC-3 prostate): 16500 nM | GI50 (RPMI-8226 leukemia): 26.8 nM | TGI (RPMI-8226 leukemia): 74.7 nM | GI50 (RXF 393 renal): 1140 nM | TGI (RXF 393 renal): 17500 nM | GI50 (SF-268 CNS): 984 nM | TGI (SF-268 CNS): 19300 nM | GI50 (SF-295 CNS): 815 nM | TGI (SF-295 CNS): 17300 nM | GI50 (SF-539 CNS): 286 nM | TGI (SF-539 CNS): 12900 nM | GI50 (SK-MEL-28 melanoma): 448 nM | TGI (SK-MEL-28 melanoma): 16700 nM | GI50 (SK-MEL-5 melanoma): 96.4 nM | TGI (SK-MEL-5 melanoma): 1910 nM | GI50 (SK-OV-3 ovarian): 142 nM | TGI (SK-OV-3 ovarian): 6780 nM | GI50 (SN12C renal): 3260 nM | TGI (SN12C renal): 19900 nM | GI50 (SNB-19 CNS): 371 nM | TGI (SNB-19 CNS): 16200 nM | GI50 (SNB-75 CNS): 634 nM | TGI (SNB-75 CNS): 19100 nM | GI50 (SR leukemia): 27.3 nM | TGI (SR leukemia): 252 nM | GI50 (SW-620 colon): 10100 nM | TGI (SW-620 colon): 21800 nM | GI50 (T-47D breast): 293 nM | TGI (T-47D breast): 13200 nM | GI50 (TK-10 renal): 91.5 nM | TGI (TK-10 renal): 8290 nM | GI50 (U251 glioblastoma): 1170 nM | TGI (U251 glioblastoma): 17900 nM | GI50 (UACC-257 melanoma): 58.1 nM | TGI (UACC-257 melanoma): 1940 nM | GI50 (UACC-62 melanoma): 43 nM | TGI (UACC-62 melanoma): 10500 nM | GI50 (UO-31 renal): 837 nM | TGI (UO-31 renal): 20600 nM
